Test results: patent US11161850B2, “Fused pyrazine derivatives as A2A / A2B inhibitors” (Incyte Corporation, priority 2018, dated 2021)
pEC50, pKi: −log10 of the molar value. Read-outs that look alike come from different tables or passages of the source.

What was measured:
Adenosine A2A = Adenosine A2A (Homo sapiens (Human), UniProt P29274); experiment: A2A Tag-Lite HTRF assay; format: binding
Text: Example C. A2A Tag-Lite® HTRF Assay

[1] = molecular target: human adenosine A2B receptor (Homo sapiens (Human), UniProt P29275); experiment: Adenosine A2B Receptor Cyclic AMP GS Assay; format: cell-based; settings: HEK-293 cells expressing human A2B, agonist NECA 12 nM; for pEC50: read-out: A2B_cAMP_EC50; for EC50: A2B_cAMP_EC50 (nM)
Method: Example B. Adenosine A2B Receptor Cyclic AMP GS Assay
Stably transfected HEK-293 cells expressing the human adenosine A2B receptor (Perkin Elmer) were maintained in MEM culture medium with 10% FBS and 100 μg/mL Geneticin (Life Technologies). 18 to 24 hours prior to assay, geneticin was removed from culture. The cisbio cAMP-GS Dynamic kit utilizing the FRET (Fluorescence Resonance Energy Transfer) technology was used to measure cAMP accumulation in the cells. Compounds of the present disclosure at an appropriate concentration were mixed with 10000 cells/well in white 96 well half area plates (Perkin Elmer) for 30 min at room temperature gently shaking. Agonist, NECA (R&D Technologies) at 12 nM was added to each well for 60 min at room temperature gently shaking. Detection reagents, d2-labeled cAMP (acceptor) and anti-cAMP cryptate (donor) were added to each well for 60 min at rt gently shaking. Plates were read on Pherastar (BMG Labtech), fluorescence ratio 665/620 was calculated and EC50 determination was performed by fitting the curve of percent of control versus the log of the compound concentration using GraphPad Prism.

[2] = read-out: A2A_Ki, Tag-Lite Adenosine A2A labeled cells, fluorescent ligand 12.5 nM
[3] = Tag-Lite Adenosine A2A labeled cells, fluorescent ligand 12.5 nM, read-out: A2A_Ki

Chain of human adenosine A2B receptor (P29275 whole entry): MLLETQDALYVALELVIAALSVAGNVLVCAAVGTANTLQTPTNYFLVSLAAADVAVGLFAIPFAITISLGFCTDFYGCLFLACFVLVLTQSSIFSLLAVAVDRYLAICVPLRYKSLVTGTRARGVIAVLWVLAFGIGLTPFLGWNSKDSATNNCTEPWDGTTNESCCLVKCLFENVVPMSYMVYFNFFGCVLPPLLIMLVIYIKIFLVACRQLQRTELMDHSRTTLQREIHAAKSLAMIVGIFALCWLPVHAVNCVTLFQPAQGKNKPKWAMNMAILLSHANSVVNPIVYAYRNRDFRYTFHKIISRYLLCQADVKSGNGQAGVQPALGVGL
Chain of Adenosine A2A (P29274 whole entry): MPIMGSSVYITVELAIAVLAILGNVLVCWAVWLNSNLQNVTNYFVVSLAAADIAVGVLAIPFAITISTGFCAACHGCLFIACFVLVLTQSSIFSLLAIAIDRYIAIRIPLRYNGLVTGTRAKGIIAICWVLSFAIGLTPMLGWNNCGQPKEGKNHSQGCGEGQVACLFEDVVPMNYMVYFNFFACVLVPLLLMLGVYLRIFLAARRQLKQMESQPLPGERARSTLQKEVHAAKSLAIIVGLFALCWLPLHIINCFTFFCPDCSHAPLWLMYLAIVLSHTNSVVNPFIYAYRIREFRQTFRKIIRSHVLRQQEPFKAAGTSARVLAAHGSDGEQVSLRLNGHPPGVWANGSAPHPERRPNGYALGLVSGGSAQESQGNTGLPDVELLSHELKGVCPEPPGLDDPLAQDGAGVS

| SMILES | pKi (Adenosine A2A; [2]) | pEC50 [1] | pKi (Adenosine A2A) | EC50 [1] | pKi (Adenosine A2A; [3]) |
| --- | --- | --- | --- | --- | --- |
| N#Cc1cccc(-c2nc(N)c3nc(C(O)c4c(F)cccc4OC(F)F)nn3c2-c2ccncn2)c1 (single isomer, unassigned) [Example 98, 3-(8-amino-2-((2-(difluoromethoxy)-6-fluorophenyl)(hydroxy)methyl)-5-(pyrimidin-4-yl)-[1,2,4]triazolo[1,5-a]pyrazin-6-yl)benzonitrile] | > 8.00 | > 8.00 | – | – | – |
| CN(C)Cc1cccc(F)c1C(O)c1nc2c(N)nc(-c3cccc(C#N)c3)c(-c3ccncn3)n2n1 (single isomer, unassigned) [Example 100, 3-(8-amino-2-((2-((dimethylamino)methyl)-6-fluorophenyl)(hydroxy)methyl)-5-(pyrimidin-4-yl)-[1,2,4]triazol[1,5-a]pyrazin-6-yl)benzonitrile] | – | – | > 8.00 | 100 to 1000 nM | – |
| CN(C)Cc1cccc(F)c1C(O)c1nc2c(N)nc(-c3cccc(C#N)c3)c(-c3ccncn3)n2n1 (single isomer, unassigned) [Example 101, 3-(8-amino-2-((2-((dimethylamino)methyl)-6-fluorophenyl)(hydroxy)methyl)-5-(pyrimidin-4-yl)-[1,2,4]triazolo[1,5-a]pyrazin-6-yl)benzonitrile] | > 8.00 | – | – | < 10 nM | – |
| Cc1n[nH]cc1-c1c(-c2cccc(C#N)c2)nc(N)c2nc(C(O)c3c(F)cccc3F)nn12 (single isomer, unassigned) [Example 102, 3-(8-amino-2-((2,6-difluorophenyl)(hydroxy)methyl)-5-(3-methyl-1H-pyrazol-4-yl)-[1,2,4]triazolo[1,5-a]pyrazin-6-yl)benzonitrile] | – | – | > 8.00 | < 10 nM | – |
| Cc1n[nH]cc1-c1c(-c2cccc(C#N)c2)nc(N)c2nc(C(O)c3c(F)cccc3F)nn12 (single isomer, unassigned) [Example 103, 3-(8-amino-2-((2,6-difluorophenyl)(hydroxy)methyl)-5-(3-methyl-1H-pyrazol-4-yl)-[1,2,4]triazolo[1,5-a]pyrazin-6-yl)benzonitrile] | > 8.00 | > 8.00 | – | – | – |
| N#Cc1cccc(-c2nc(N)c3nc(C(O)c4c(F)cccc4F)nn3c2-c2cnco2)c1 (single isomer, unassigned) [Example 105, 3-(8-amino-2-((2,6-difluorophenyl)(hydroxy)methyl)-5-(oxazol-5-yl)-[1,2,4]triazolo[1,5-a]pyrazin-6-yl)benzonitrile] | – | – | > 8.00 | < 10 nM | – |
| N#Cc1cccc(-c2nc(N)c3nc(C(O)c4c(F)cccc4F)nn3c2-c2cnco2)c1 (single isomer, unassigned) [Example 106, 3-(8-amino-2-((2,6-difluorophenyl)(hydroxy)methyl)-5-(oxazol-5-yl)-[1,2,4]triazolo[1,5-a]pyrazin-6-yl)benzonitrile] | > 8.00 | > 8.00 | – | – | – |
| Cc1cnccc1-c1c(-c2cccc(C#N)c2)nc(N)c2nc(C(O)c3c(F)cccc3F)nn12 (single isomer, unassigned) [Example 108, 3-(8-amino-2-((2,6-difluorophenyl)(hydroxy)methyl)-5-(3-methylpyridin-4-yl)-[1,2,4]triazolo[1,5-a]pyrazin-6-yl)benzonitrile] | – | – | > 8.00 | < 10 nM | – |
| Cc1cnccc1-c1c(-c2cccc(C#N)c2)nc(N)c2nc(C(O)c3c(F)cccc3F)nn12 (single isomer, unassigned) [Example 109, 3-(8-amino-2-((2,6-difluorophenyl)(hydroxy)methyl)-5-(3-methylpyridin-4-yl)-[1,2,4]triazolo[1,5-a]pyrazin-6-yl)benzonitrile] | > 8.00 | > 8.00 | – | – | – |
| N#Cc1cccc(-c2nc(N)c3nc(C(O)c4c(F)cccc4CN4CCCC4)nn3c2-c2ccncn2)c1 (single isomer, unassigned) [Example 110, 3-(8-amino-2-((2-fluoro-6-(pyrrolidin-1-ylmethyl)phenyl)(hydroxy)methyl)-5-(pyrimidin-4-yl)-[1,2,4]triazolo[1,5-a]pyrazin-6-yl)benzonitrile] | – | – | > 8.00 | 100 to 1000 nM | – |
| N#Cc1cccc(-c2nc(N)c3nc(C(O)c4c(F)cccc4CN4CCCC4)nn3c2-c2ccncn2)c1 (single isomer, unassigned) [Example 111, 3-(8-amino-2-((2-fluoro-6-(pyrrolidin-1-ylmethyl)phenyl)(hydroxy)methyl)-5-(pyrimidin-4-yl)-[1,2,4]triazolo[1,5-a]pyrazin-6-yl)benzonitrile] | > 8.00 | – | – | < 10 nM | – |
| CCNC(=O)c1cc2c(N)nc(-c3cccc(C#N)c3)c(-c3ccnn3CC)n2n1 [Example 1, 4-Amino-6-(3-cyanophenyl)-N-ethyl-7-(1-ethyl-1H-pyrazol-5-yl)pyrazolo[1,5-a]pyrazine-2-carboxamide] | – | – | – | 10 to 100 nM | > 8.00 |
| CCCn1nccc1-c1c(-c2cccc(C#N)c2)nc(N)c2cc(C(=O)NCC)nn12 [Example 2, 4-Amino-6-(3-cyanophenyl)-N-ethyl-7-(1-propyl-1H-pyrazol-5-yl)pyrazolo[1,5-a]pyrazine-2-carboxamide] | – | – | – | 10 to 100 nM | > 8.00 |
| CCNC(=O)c1cc2c(N)nc(-c3cccc(C#N)c3)c(-c3ccc(=O)n(C)c3)n2n1 [Example 3, 4-Amino-6-(3-cyanophenyl)-N-ethyl-7-(1-methyl-6-oxo-1,6-dihydropyridin-3-yl)pyrazolo[1,5-a]pyrazine-2-carboxamide] | – | – | – | 100 to 1000 nM | > 8.00 |
| CCNC(=O)c1cc2c(N)nc(-c3cccc(C#N)c3)c(-c3ccncn3)n2n1 [Example 4, 4-Amino-6-(3-cyanophenyl)-N-ethyl-7-(pyrimidin-4-yl)pyrazolo[1,5-a]pyrazine-2-carboxamide] | – | – | – | 10 to 100 nM | > 8.00 |
| CCNC(=O)c1cc2c(N)nc(-c3cccc(C#N)c3)c(C(C)(F)F)n2n1 [Example 5, 4-Amino-6-(3-cyanophenyl)-7-(1,1-difluoroethyl)-N-ethylpyrazolo[1,5-a]pyrazine-2-carboxamide] | – | – | – | 100 to 1000 nM | > 8.00 |
| CCNC(=O)c1cc2c(N)nc(-c3cccc(C#N)c3)c(C3(C(F)(F)F)CC3)n2n1 [Example 6, 4-Amino-6-(3-cyanophenyl)-N-ethyl-7-(1-(trifluoromethyl)cyclopropyl)pyrazolo[1,5-a]pyrazine-2-carboxamide] | – | – | 7.00 to 8.00 | > 1000 nM | – |
| N#Cc1cccc(-c2nc(N)c3cc(C(=O)N4CCC4)nn3c2-c2ccncn2)c1 [Example 7, 3-(4-Amino-2-(azetidine-1-carbonyl)-7-(pyrimidin-4-yl)pyrazolo[1,5-a]pyrazin-6-yl)benzonitrile] | – | – | – | < 10 nM | > 8.00 |
| N#Cc1cccc(-c2nc(N)c3cc(C(=O)N4CCCC4)nn3c2-c2ccncn2)c1 [Example 8, 3-(4-Amino-7-(pyrimidin-4-yl)-2-(pyrrolidine-1-carbonyl)pyrazolo[1,5-a]pyrazin-6-yl)benzonitrile] | – | – | – | 10 to 100 nM | > 8.00 |
| N#Cc1cccc(-c2nc(N)c3cc(C(=O)N4CCCCC4)nn3c2-c2ccncn2)c1 [Example 9, 3-(4-Amino-2-(piperidine-1-carbonyl)-7-(pyrimidin-4-yl)pyrazolo[1,5-a]pyrazin-6-yl)benzonitrile] | – | – | – | 10 to 100 nM | > 8.00 |
| CCN(CC)C(=O)c1cc2c(N)nc(-c3cccc(C#N)c3)c(-c3ccncn3)n2n1 [Example 10, 4-Amino-6-(3-cyanophenyl)-N,N-diethyl-7-(pyrimidin-4-yl)pyrazolo[1,5-a]pyrazine-2-carboxamide] | – | – | – | < 10 nM | > 8.00 |
| CCN(C)C(=O)c1cc2c(N)nc(-c3cccc(C#N)c3)c(-c3ccncn3)n2n1 [Example 11, 4-Amino-6-(3-cyanophenyl)-N-ethyl-N-methyl-7-(pyrimidin-4-yl)pyrazolo[1,5-a]pyrazine-2-carboxamide] | – | – | – | < 10 nM | > 8.00 |
| N#Cc1cccc(-c2nc(N)c3cc(C(=O)N4CC(O)C4)nn3c2-c2ccncn2)c1 [Example 12, 3-(4-Amino-2-(3-hydroxyazetidine-1-carbonyl)-7-(pyrimidin-4-yl)pyrazolo[1,5-a]pyrazin-6-yl)benzonitrile] | – | – | – | 10 to 100 nM | > 8.00 |
| N#Cc1cccc(-c2nc(N)c3cc(CN4CCC4)nn3c2-c2ccncn2)c1 [Example 13, 3-(4-Amino-2-(azetidin-1-ylmethyl)-7-(pyrimidin-4-yl)pyrazolo[1,5-a]pyrazin-6-yl)benzonitrile] | – | – | 7.00 to 8.00 | 100 to 1000 nM | – |
| CCOC(=O)Nc1nc2c(N)nc(-c3cccc(C#N)c3)cn2n1 [Example 14, Ethyl(8-amino-6-(3-cyanophenyl)-[1,2,4]triazolo[1,5-a]pyrazin-2-yl)carbamate] | – | – | 7.00 to 8.00 | > 1000 nM | – |
| N#Cc1cccc(-c2nc(N)c3ncnn3c2-c2ccc(=O)[nH]c2)c1 [Example 15, 3-(8-Amino-5-(6-oxo-1,6-dihydropyridin-3-yl)-[1,2,4]triazolo[1,5-a]pyrazin-6-yl)benzonitrile] | – | – | – | < 10 nM | > 8.00 |
| N#Cc1cccc(-c2cn3nc(Cc4ccccn4)cc3c(N)n2)c1 [Example 16, 3-(4-Amino-2-(pyridin-2-ylmethyl)pyrazolo[1,5-a]pyrazin-6-yl)benzonitrile] | – | – | – | < 10 nM | > 8.00 |
